Assay results as given in the supplement of paper PMC13380429.

Experiments:
Conditions in all cases: 72 h
HepG2 [1] = experiment: relative viability EC50 (midpoint between 100% and the lowest measured viability); higher = less toxic
Vero E6 [2] = experiment: as above
Calu-3 [3] = experiment: as above
Caco-2 [4] = experiment: as above
U2OS [5] = experiment: as above
HepG2 [6] = experiment: drug sensitivity score (DSS) for viability; higher = more toxic; extreme values may be limits of the assay
Vero E6 [7] = experiment: as above
Calu-3 [8] = experiment: as above
Caco-2 [9] = experiment: as above
U2OS [10] = experiment: as above
HepG2 [11] = experiment: cell viability relative to DMSO; higher = less toxic
Vero E6 [12] = experiment: as above
Calu-3 [13] = experiment: as above
Caco-2 [14] = experiment: as above
U2OS [15] = experiment: as above

SMILES: COc1[nH]c2ccc(F)cc2c1C(=O)OCC1CCN(CCNS(C)(=O)=O)CC1
- relative viability EC50 (HepG2 [1]): > 10 µM
- relative viability EC50 (Vero E6 [2]): > 10 µM
- relative viability EC50 (Calu-3 [3]): > 10 µM
- relative viability EC50 (Caco-2 [4]): > 10 µM
- relative viability EC50 (U2OS [5]): > 10 µM
- drug sensitivity score (HepG2 [6]): 0
- drug sensitivity score (Vero E6 [7]): 0
- drug sensitivity score (Calu-3 [8]): 0
- drug sensitivity score (Caco-2 [9]): 0
- drug sensitivity score (U2OS [10]): 0
- cell viability (HepG2 [11]; 1 nM): 98.7%
- cell viability (HepG2 [11]; 10 nM): 105%
- cell viability (HepG2 [11]; 100 nM): 97.2%
- cell viability (HepG2 [11]; 1000 nM): 101%
- cell viability (HepG2 [11]; 10000 nM): 94.6%
- cell viability (Vero E6 [12]; 1 nM): 103%
- cell viability (Vero E6 [12]; 10 nM): 108%
- cell viability (Vero E6 [12]; 100 nM): 102%
- cell viability (Vero E6 [12]; 1000 nM): 104%
- cell viability (Vero E6 [12]; 10000 nM): 97.3%
- cell viability (Calu-3 [13]; 1 nM): 96%
- cell viability (Calu-3 [13]; 10 nM): 94.3%
- cell viability (Calu-3 [13]; 100 nM): 92.2%
- cell viability (Calu-3 [13]; 1000 nM): 105%
- cell viability (Calu-3 [13]; 10000 nM): 107%
- cell viability (Caco-2 [14]; 1 nM): 103%
- cell viability (Caco-2 [14]; 10 nM): 99.3%
- cell viability (Caco-2 [14]; 100 nM): 96.7%
- cell viability (Caco-2 [14]; 1000 nM): 98.2%
- cell viability (Caco-2 [14]; 10000 nM): 98.3%
- cell viability (U2OS [15]; 1 nM): 104%
- cell viability (U2OS [15]; 10 nM): 94.5%
- cell viability (U2OS [15]; 100 nM): 100%
- cell viability (U2OS [15]; 1000 nM): 97.2%
- cell viability (U2OS [15]; 10000 nM): 98.9%

SMILES: COc1ccc(NS(=O)(=O)c2ccc(I)cc2)cc1N1CCN(C)CC1
- relative viability EC50 (HepG2 [1]): > 10 µM
- relative viability EC50 (Vero E6 [2]): > 10 µM
- relative viability EC50 (Calu-3 [3]): > 10 µM
- relative viability EC50 (Caco-2 [4]): > 10 µM
- relative viability EC50 (U2OS [5]): > 10 µM
- drug sensitivity score (HepG2 [6]): 0.4
- drug sensitivity score (Vero E6 [7]): 0
- drug sensitivity score (Calu-3 [8]): 0
- drug sensitivity score (Caco-2 [9]): 0
- drug sensitivity score (U2OS [10]): 0
- cell viability (HepG2 [11]; 1 nM): 108%
- cell viability (HepG2 [11]; 10 nM): 104%
- cell viability (HepG2 [11]; 100 nM): 100%
- cell viability (HepG2 [11]; 1000 nM): 99.9%
- cell viability (HepG2 [11]; 10000 nM): 82.6%
- cell viability (Vero E6 [12]; 1 nM): 103%
- cell viability (Vero E6 [12]; 10 nM): 107%
- cell viability (Vero E6 [12]; 100 nM): 102%
- cell viability (Vero E6 [12]; 1000 nM): 100%
- cell viability (Vero E6 [12]; 10000 nM): 92.2%
- cell viability (Calu-3 [13]; 1 nM): 95.6%
- cell viability (Calu-3 [13]; 10 nM): 94.7%
- cell viability (Calu-3 [13]; 100 nM): 102%
- cell viability (Calu-3 [13]; 1000 nM): 93.3%
- cell viability (Calu-3 [13]; 10000 nM): 101%
- cell viability (Caco-2 [14]; 1 nM): 109%
- cell viability (Caco-2 [14]; 10 nM): 98%
- cell viability (Caco-2 [14]; 100 nM): 102%
- cell viability (Caco-2 [14]; 1000 nM): 98.5%
- cell viability (Caco-2 [14]; 10000 nM): 93.3%
- cell viability (U2OS [15]; 1 nM): 101%
- cell viability (U2OS [15]; 10 nM): 97.7%
- cell viability (U2OS [15]; 100 nM): 102%
- cell viability (U2OS [15]; 1000 nM): 99.8%
- cell viability (U2OS [15]; 10000 nM): 98.2%

SMILES: COc1ccc(S(=O)(=O)Nc2c(C)cc(C)cc2C)cc1
- relative viability EC50 (HepG2 [1]): > 10 µM
- relative viability EC50 (Vero E6 [2]): > 10 µM
- relative viability EC50 (Calu-3 [3]): > 10 µM
- relative viability EC50 (Caco-2 [4]): > 10 µM
- relative viability EC50 (U2OS [5]): > 10 µM
- drug sensitivity score (HepG2 [6]): 0
- drug sensitivity score (Vero E6 [7]): 0
- drug sensitivity score (Calu-3 [8]): 0
- drug sensitivity score (Caco-2 [9]): 0
- drug sensitivity score (U2OS [10]): 0
- cell viability (HepG2 [11]; 1 nM): 105%
- cell viability (HepG2 [11]; 10 nM): 98%
- cell viability (HepG2 [11]; 100 nM): 105%
- cell viability (HepG2 [11]; 1000 nM): 99.5%
- cell viability (HepG2 [11]; 10000 nM): 97.3%
- cell viability (Vero E6 [12]; 1 nM): 101%
- cell viability (Vero E6 [12]; 10 nM): 105%
- cell viability (Vero E6 [12]; 100 nM): 97.2%
- cell viability (Vero E6 [12]; 1000 nM): 101%
- cell viability (Vero E6 [12]; 10000 nM): 93.7%
- cell viability (Calu-3 [13]; 1 nM): 103%
- cell viability (Calu-3 [13]; 10 nM): 96.5%
- cell viability (Calu-3 [13]; 100 nM): 94.6%
- cell viability (Calu-3 [13]; 1000 nM): 106%
- cell viability (Calu-3 [13]; 10000 nM): 102%
- cell viability (Caco-2 [14]; 1 nM): 106%
- cell viability (Caco-2 [14]; 10 nM): 94.2%
- cell viability (Caco-2 [14]; 100 nM): 93.6%
- cell viability (Caco-2 [14]; 1000 nM): 94.9%
- cell viability (Caco-2 [14]; 10000 nM): 94.1%
- cell viability (U2OS [15]; 1 nM): 103%
- cell viability (U2OS [15]; 10 nM): 98.7%
- cell viability (U2OS [15]; 100 nM): 101%
- cell viability (U2OS [15]; 1000 nM): 98.5%
- cell viability (U2OS [15]; 10000 nM): 99.6%

SMILES: C[C@H](Cc1ccc2c(c1)OC(C(=O)O)(C(=O)O)O2)NC[C@H](O)c1cccc(Cl)c1
- relative viability EC50 (HepG2 [1]): > 10 µM
- relative viability EC50 (Vero E6 [2]): > 10 µM
- relative viability EC50 (Calu-3 [3]): > 10 µM
- relative viability EC50 (Caco-2 [4]): > 10 µM
- relative viability EC50 (U2OS [5]): > 10 µM
- drug sensitivity score (HepG2 [6]): 0
- drug sensitivity score (Vero E6 [7]): 0
- drug sensitivity score (Calu-3 [8]): 0
- drug sensitivity score (Caco-2 [9]): 0
- drug sensitivity score (U2OS [10]): 0
- cell viability (HepG2 [11]; 1 nM): 97.9%
- cell viability (HepG2 [11]; 10 nM): 101%
- cell viability (HepG2 [11]; 100 nM): 103%
- cell viability (HepG2 [11]; 1000 nM): 101%
- cell viability (HepG2 [11]; 10000 nM): 97.4%
- cell viability (Vero E6 [12]; 1 nM): 97.5%
- cell viability (Vero E6 [12]; 10 nM): 97.2%
- cell viability (Vero E6 [12]; 100 nM): 93.1%
- cell viability (Vero E6 [12]; 1000 nM): 96.4%
- cell viability (Vero E6 [12]; 10000 nM): 97.9%
- cell viability (Calu-3 [13]; 1 nM): 103%
- cell viability (Calu-3 [13]; 10 nM): 101%
- cell viability (Calu-3 [13]; 100 nM): 90.6%
- cell viability (Calu-3 [13]; 1000 nM): 92.9%
- cell viability (Calu-3 [13]; 10000 nM): 91.1%
- cell viability (Caco-2 [14]; 1 nM): 103%
- cell viability (Caco-2 [14]; 10 nM): 101%
- cell viability (Caco-2 [14]; 100 nM): 104%
- cell viability (Caco-2 [14]; 1000 nM): 97.3%
- cell viability (Caco-2 [14]; 10000 nM): 111%
- cell viability (U2OS [15]; 1 nM): 104%
- cell viability (U2OS [15]; 10 nM): 101%
- cell viability (U2OS [15]; 100 nM): 99.1%
- cell viability (U2OS [15]; 1000 nM): 99%
- cell viability (U2OS [15]; 10000 nM): 102%
